{"source": "patent EP4537832A1", "about": "“METHOD FOR TREATING CANCER PATIENT WITH AKR1C3 ENZYME-ACTIVATED PRODRUG” (Ascentawits Pharmaceuticals, Ltd., priority 2022, dated 2023)", "key": {"[1]": {"test_system": "HPAF II cells", "test": "Cell apoptosis detection (Caspase Glo 3/7) in HPAF II cells with MEK/ERK modulators and AST", "type": "cell-based", "method": "Additionally, cell apoptosis detection was performed as follows: • 1) Caspase Glo® 3/7 reagents were prepared and equilibrated to room temperature. The buffer of the reagents and the substrate were mixed homogeneously at 1:1 to prepare Caspase Glo® 3/7 reagents. The configured reagents can be stored at 4 °C for 3 days. • 2) 100 µL Caspase Glo® 3/7 reagents were added to each well of culture medium containing 100 µL blank (wells without cells), negative control cells, or treated cells. Due to the sensitivity of the analysis, be careful not to make the tip of the pipette to touch the holes that contained samples to avoid cross contamination. The plates were covered with a plate sealant or lid. • 3) The reagent solutions were mixed gently using a shaker at a speed of 300-500 rpm for 30 seconds, and left in the dark at room temperature for 1 hour. • 4) The luminescence of each sample was measured in a plate reading photometer. And the luminescence value of each group was calculated, and analyze by making a column diagram.\nThe specific compounds to be treated in the apoptosis inhibitor group and activator group are as follows: Inhibition group: 1% DMSO treatment group, 1 µM AST treatment group, 30 µM PD98059 treatment group, 1 mM Suramin treatment group, 1 µM AST + 30 µM PD98059 treatment group, and 1 µM AST + 1 mM Suramin treatment group; and Activator group: 1% DMSO treatment group, 1 µM AST treatment group, 50 nM TPA treatment group, and 1 µM AST + 50 nM TPA treatment group."}, "[2]": {"test_system": "p-ERK2", "test": "Western blot in HPAF II cells with MEK/ERK modulators and AST: p-ERK2", "type": "cell-based", "text": "The experiment used three types of MEK/ERK modulators, including two inhibitors and one activator. The inhibitors were PD98059, a MEK1/2 specific inhibitor, and Suramin, a broad-spectrum growth factor receptor inhibitor; while the activator of the ERK signaling pathway is Phorbol Ester (TPA). The chemical structures of inhibitor PD98059, inhibitor Suramin, and activator TPA are as follows: [drawing 48] [drawing 49] [drawing 50]\nThe experiment was assigned to inhibitor group and activator group, both of which were performed by Western Blot and cell apoptosis experiments.\nIn the Western blot experiment, HPAF II cell suspensions were treated with each group of compounds, and cultured overnight in a 37 °C, 5% CO2 incubator, and the cell protein lysate was collected for Western blot (WB) detection.\nThe specific compounds to be treated in the Western blot inhibitor group and activator group are as follows: Inhibitor group: 1% DMSO treatment group, 1 µM AST treatment group, 30 µM PD98059 treatment group, 1 mM Suramin treatment group, 1 µM AST + 30 µM PD98059 treatment group, and 1 µM AST + 1 mM Suramin treatment group; and Activator group: 1% DMSO treatment group, 0.5 µM AST treatment group, 25 nM TPA treatment group, and 0.5 µM AST + 25 nM TPA treatment group."}, "[3]": {"test_system": "AKR1C3", "settings": "HPAF II cells; increasing SFN concentration 0.875-7 µM, overnight", "method": "(§1) The solution of SFN compound (Sulforaphane, NRF2 activator) was added to HPAF II cell suspension, cultured overnight in a 37 °C, 5% CO2 incubator, and the cell protein lysate was collected for Western blot (WB) detection.\n(§2) The experiment was assigned to 5 groups: 0.5% DMSO, 0.875 µM SFN, 1.75 µM SFN, 3.5 µM SFN, and 7 µM SFN.\n(§3) HPAF II cells were treated with different concentrations of NRF2 activator SFN, and then the expression of NRF2 and AKR1C3 was detected by Western blot."}, "[4]": {"test_system": "NRF2", "settings": "HPAF II cells; increasing SFN concentration 0.875-7 µM, overnight", "method": "as §1, §2, §3"}}, "data": [{"compound": "COc1cccc(-c2cc(=O)c3ccccc3o2)c1N", "note": "[PD98059, reference compound]", "values": [{"measurement": "cell apoptosis (Caspase 3/7 luminescence)", "setting": "[1]; 30 µM PD98059 monotherapy", "result": "almost no effect on cell apoptosis"}, {"measurement": "expression level of p-ERK2", "setting": "[2]; 30 µM PD98059 alone", "result": "slightly reduced"}]}, {"compound": "C[S+]([O-])CCCCN=C=S", "note": "(stereo not drawn) [SFN, Sulforaphane]", "values": [{"measurement": "expressions of AKR1C3", "setting": "[3]", "result": "also increased simultaneously"}, {"measurement": "expressions of NRF2", "setting": "[4]", "result": "significantly increased"}]}, {"compound": "Cc1ccc(C(=O)Nc2ccc(S(=O)(=O)O)c3cc(S(=O)(=O)O)cc(S(=O)(=O)O)c23)cc1NC(=O)c1cccc(NC(=O)Nc2cccc(C(=O)Nc3cc(C(=O)Nc4ccc(S(=O)(=O)O)c5cc(S(=O)(=O)O)cc(S(=O)(=O)O)c45)ccc3C)c2)c1", "note": "[suramin, Suramin, reference compound]", "values": [{"measurement": "cell apoptosis (Caspase 3/7 luminescence)", "setting": "[1]; 1 mM Suramin monotherapy", "result": "almost no effect on cell apoptosis"}, {"measurement": "expression level of p-ERK2", "setting": "[2]; 1 mM Suramin alone", "result": "slightly reduced"}]}]}
